Reference: EP0326331B1, “Substituted quinolines and cinnolines” (Dow AgroSciences LLC, priority 1988, dated 1989)
Where two headings read alike, the source gives them in different places.

Columns and labels:
Assay type in all cases: in vivo
[1] = tested on: Erysiphe graminis tritici (powdery mildew); assay: Test 1 greenhouse foliar spray screen, powdery mildew on wheat; settings: for POWD MDEW: disease control rating, foliar spray on wheat, 400 ppm (+++ at 100 ppm); for pest or weed control at 400 ppm: Blumeria graminis, foliar, Test 1, foliar spray on wheat, disease control rating at 400 ppm / 100 ppm, read-out: POWD MDEW
[2] = tested on: Botrytis cinerea (gray mold); assay: Test 1 greenhouse foliar spray screen, gray mold on grape berries; settings: for GRAY MOLD: disease control rating, spray on grape berries, 400 ppm (+++ at 100 ppm); for pest or weed control at 400 ppm: Botrytis cinerea, foliar, Test 1, spray on grape berries, disease control rating at 400 ppm / 100 ppm
corn rootworm = assay: Mite/insect screen, CRW; settings: read-out: CRW RESULTS %
Summary of the method: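 Compounds dissolved in 50:50 acetone/alcohol with TOXIMUL R and S emulsifiers (23 and 13 g/L), then diluted in water to the stated test concentrations. Percent mortality of corn rootworm scored after standard exposure periods.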

[3] = tested on: Pyricularia oryzae (rice blast); assay: whole plant or invertebrate; settings: for RICE BLAST: disease control rating, foliar spray on rice, 400 ppm (+++ at 100 ppm); for pest or weed control at 400 ppm: Pyricularia oryzae, foliar, read-out: RICE BLAST, Test 1, foliar spray on rice, disease control rating at 400 ppm / 100 ppm
[4] = tested on: Septoria tritici (leaf blotch); assay: Test 1 greenhouse foliar spray screen, leaf blotch on wheat; settings: for LEAF BLOT: disease control rating, foliar spray on wheat, 400 ppm (+++ at 100 ppm); for pest or weed control at 400 ppm: Zymoseptoria tritici, Test 1, foliar spray on wheat, disease control rating at 400 ppm / 100 ppm, read-out: LEAF BLOT
[5] = tested on: Venturia inaequalis (apple scab); assay: Test 1 greenhouse foliar spray screen, apple scab on apple seedling; settings: for APPL SCAB: disease control rating, foliar spray on apple seedling, 400 ppm (+++ at 100 ppm); for pest or weed control at 400 ppm: Venturia inaequalis, Test 1, foliar spray on apple seedling, disease control rating at 400 ppm / 100 ppm, read-out: APPL SCAB
[6] = tested on: melon aphids (Aphis gossypii Glover); assay: Mite/insect screen, MA; settings: Aphis gossypii, foliar, read-out: MA RESULTS %
Summary of the method: (§1)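 Compounds dissolved in acetone/alcohol (50:50) with TOXIMUL R and S emulsifiers, diluted in water to test concentrations, and sprayed to runoff on both leaf surfaces at 10 psi, then dried 1 h. For armyworm, excised treated leaves were offered to larvae; percent mortality scored after standard exposure periods.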

[7] = tested on: Pseudoperonospora cubensis (downy mildew); assay: Test 1 greenhouse foliar spray screen, downy mildew on squash; settings: for DOWN MDEW: disease control rating, foliar spray on squash, 400 ppm (+++ at 100 ppm); for pest or weed control at 400 ppm: Pseudoperonospora cubensis, foliar, Test 1, foliar spray on squash, disease control rating at 400 ppm / 100 ppm, read-out: DOWN MDEW; for activity against downy mildew: summary statement in the description
[8] = tested on: Puccinia recondita tritici (leaf rust); assay: Test 1 greenhouse foliar spray screen, leaf rust on wheat; settings: for LEAF RUST: disease control rating, foliar spray on wheat, 400 ppm (+++ at 100 ppm); for pest or weed control at 400 ppm: Puccinia recondita, foliar, Test 1, foliar spray on wheat, disease control rating at 400 ppm / 100 ppm
[9] = tested on: southern armyworm (Spodopetra eridania Cramer); assay: Mite/insect screen, SAW; settings: Spodoptera eridania, foliar, read-out: SAW RESULTS %
Summary of the method: as §1

[10] = tested on: Cercospora beticola (leaf spot); assay: Test 1 greenhouse foliar spray screen, leaf spot on sugar beet; settings: for LEAF SPOT: disease control rating, foliar spray on sugar beet, 400 ppm (+++ at 100 ppm); for pest or weed control at 400 ppm: Cercospora beticola, Test 1, foliar spray on sugar beet, disease control rating at 400 ppm / 100 ppm
[11] = tested on: Twospotted spider mites (Tetranychus urticae Koch); assay: Mite/insect screen, SM; settings: for mortality at 200 ppm / mortality at 400 ppm: Tetranychus urticae, foliar, read-out: SM RESULTS %; for activity as miticides: summary statement in the description
Summary of the method: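 Compounds dissolved in 50:50 acetone/alcohol containing sulfonate/nonionic emulsifier blends, then diluted with water to the indicated concentrations. Leaves sprayed on both surfaces to runoff at 10 psi and dried one hour. Percent mortality scored after standard exposure periods.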

[12] = percent mortality, CRW rate 12.00 ppm
[13] = percent mortality, CRW rate 24.00 ppm
[14] = percent mortality, rate 200 ppm, foliar spray on squash
[15] = percent mortality, rate 400 ppm, foliar spray on squash

Row | SMILES | mortality at 12 ppm (corn rootworm; [12]) | mortality at 24 ppm (corn rootworm; [13]) | mortality at 200 ppm [6, 14] | mortality at 400 ppm [6, 15] | mortality at 200 ppm [9, 14] | mortality at 400 ppm [9, 15] | mortality at 200 ppm [11, 14] | mortality at 400 ppm [11, 15] | pest or weed control at 400 ppm [1] | pest or weed control at 400 ppm [2] | pest or weed control at 400 ppm [3] | pest or weed control at 400 ppm [4] | pest or weed control at 400 ppm [5] | pest or weed control at 400 ppm [7] | pest or weed control at 400 ppm [8] | pest or weed control at 400 ppm [10] | other results
1 | Clc1ccc(CCNc2ccc3c(NCCc4ccc(Cl)cc4)ccnc3c2)cc1 [Example 186, N,N'-bis[2-(4-chlorophenyl)ethyl]-4,7-quinolinediamine] | 0% | 0% | 0% | 0% | 0% | 0% | 0% | 0% |  |  |  |  |  |  |  |  | POWD MDEW [1]: - (0-19% control at 400 ppm); GRAY MOLD [2]: - (0-19% control at 400 ppm); RICE BLAST [3]: - (0-19% control at 400 ppm); LEAF BLOT [4]: + (20-89% control at 400 ppm); APPL SCAB [5]: - (0-19% control at 400 ppm); DOWN MDEW [7]: +++ (90-100% control at 100 ppm); LEAF RUST [8]: + (20-89% control at 400 ppm); LEAF SPOT [10]: + (20-89% control at 400 ppm)
2 | COc1ccc(CCNc2ccc3c(NCCc4ccc(OC)cc4)ccnc3c2)cc1 [Example 187, N,N'-bis[2-(4-methoxyphenyl)ethyl]-4,7-quinolinediamine] | 0% | 0% | 0% | 0% | 0% | 0% | 0% | 0% |  |  |  |  |  |  |  |  | POWD MDEW [1]: - (0-19% control at 400 ppm); GRAY MOLD [2]: - (0-19% control at 400 ppm); RICE BLAST [3]: + (20-89% control at 400 ppm); LEAF BLOT [4]: - (0-19% control at 400 ppm); APPL SCAB [5]: - (0-19% control at 400 ppm); DOWN MDEW [7]: +++ (90-100% control at 100 ppm); LEAF RUST [8]: + (20-89% control at 400 ppm); LEAF SPOT [10]: - (0-19% control at 400 ppm)
3 | c1ccc(CCNc2ccnc3c(NCCc4ccccc4)cccc23)cc1 [Example 189, N,N'-bis(2-phenylethyl)-4,8-quinolinediamine] | 0% |  | 0% |  | 0% |  | 0% |  | 0 to 19% | 0 to 19% | 20 to 89% | 0 to 19% | 0 to 19% | 20 to 89% | 20 to 89% | 0 to 19% | 
4 | Fc1cccc2c(NCCc3ccc(Cl)cc3Cl)cc(NCCc3ccc(Cl)cc3Cl)nc12 [Example 190, N,N'-bis[2-(2,4-dichlorophenyl)ethyl]-8-fluoro-2,4-quinolinediamine] |  |  | 0% |  | 0% |  | 0% |  | 0 to 19% | 0 to 19% | 20 to 89% | 0 to 19% | 0 to 19% | 0 to 19% | 90 to 100% | 0 to 19% | mortality at 12 ppm (corn rootworm): 0%
5 | C1=C(CCNc2ccc3nccc(NCCC4=CCCCC4)c3c2)CCCC1 [Example 192, N,N'-bis[2-(1-cyclohexen-yl)ethyl]-4,6-quinolinediamine] | 0% | 0% | 0% | 0% | 0% | 0% | 0% | 0% | 0 to 19% | 0 to 19% | 0 to 19% | 20 to 89% | 0 to 19% | 90 to 100% | 90 to 100% | 0 to 19% | 
6 | Fc1cccc2c(OCCc3cccc(Cl)c3)ccnc12 [Example 201, 4-[2-(3-chlorophenyl)ethoxy]-8-fluoroquinoline] | 0% | 0% | 100% | 100% | 0% | 0% | 80% | 80% | 90 to 100% | 0 to 19% | 20 to 89% | 90 to 100% | 20 to 89% | 90 to 100% | 90 to 100% | 90 to 100% | activity against downy mildew [7]: particularly excellent activity; activity as miticides [11]: particularly excellent activity
7 | Clc1ccc2c(OCCc3ccccc3)ccnc2c1 [Example 202, 7-chloro-4-(2-phenylethoxy)quinoline] | 0% | 0% | 0% | 0% | 0% | 0% | 0% | 0% | 90 to 100% | 0 to 19% | 20 to 89% | 20 to 89% | 0 to 19% | 90 to 100% | 90 to 100% | 20 to 89% | 
8 | Fc1cccc2c(OCCc3cccc(C(F)(F)F)c3)ccnc12 [Example 203, 8-fluoro-4-[2-(3-(trifluoromethyl)phenyl)ethoxy]quinoline] |  |  |  |  |  |  |  |  | 20 to 89% | 0 to 19% | 90 to 100% | 90 to 100% | 20 to 89% | 90 to 100% | 90 to 100% | 20 to 89% | mortality at 12 ppm (corn rootworm): 0%; mortality at 24 ppm (corn rootworm): 0%; activity against rice blast ([3]; summary statement in the description): particularly excellent activity; mortality at 200 ppm [6]: 100%; mortality at 400 ppm [6]: 90%; activity against downy mildew [7]: particularly excellent activity; mortality at 200 ppm [9]: 10%; mortality at 400 ppm [9]: 0%; mortality at 200 ppm [11]: 0%; mortality at 400 ppm [11]: 0%; activity as miticides [11]: particularly excellent activity
9 | Clc1cccc2c(OCCc3ccccc3)ccnc12 [Example 207, 8-chloro-4-(2-phenylethoxy)quinoline] | 0% |  | 0% |  | 0% |  | 0% |  | 90 to 100% | 0 to 19% | 90 to 100% | 90 to 100% | 20 to 89% | 90 to 100% | 90 to 100% | 20 to 89% | 
10 | c1ccc(CCOc2ccnc3ccccc23)cc1 [Example 208, 4-(2-phenylethoxy)quinoline] | 0% |  | 10% |  | 0% |  | 10% |  | 90 to 100% | 0 to 19% | 90 to 100% | 20 to 89% | 0 to 19% | 90 to 100% | 90 to 100% | 20 to 89% | 
